Biological target: T1, Tyrosine-protein phosphatase non-receptor type 1 (Homo sapiens, UniProt P18031)
T1 sequence (P18031 whole entry): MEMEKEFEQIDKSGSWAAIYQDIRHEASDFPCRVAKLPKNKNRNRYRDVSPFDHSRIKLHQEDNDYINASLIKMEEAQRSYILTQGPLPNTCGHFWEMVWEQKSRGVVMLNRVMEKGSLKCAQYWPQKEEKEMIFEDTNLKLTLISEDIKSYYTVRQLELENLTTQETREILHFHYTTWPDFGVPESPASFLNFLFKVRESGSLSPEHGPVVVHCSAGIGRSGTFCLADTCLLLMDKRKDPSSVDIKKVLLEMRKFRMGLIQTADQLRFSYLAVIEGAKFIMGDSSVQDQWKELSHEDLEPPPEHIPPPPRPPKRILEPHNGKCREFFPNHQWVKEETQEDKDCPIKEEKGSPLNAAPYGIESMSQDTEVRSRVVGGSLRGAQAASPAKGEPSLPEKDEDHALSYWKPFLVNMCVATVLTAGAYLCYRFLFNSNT
Test: Inhibition of PTP1B

| Structure (SMILES) | IC50 [µM] |
| --- | --- |
| Cc1cc(CN(Cc2ccc(-c3csnn3)cc2)S(=O)(=O)c2ccccc2)ccc1OCC(=O)O | 80.7 |
| Cc1cc(CN(Cc2ccc(-c3csnn3)cc2)S(=O)(=O)c2ccccc2)cc(C)c1OC(Cc1ccccc1)C(=O)O (centres undefined) | 38 |
| O=C(O)C[S+]([O-])c1ccc(CN(Cc2ccc(-c3csnn3)cc2)S(=O)(=O)c2ccccc2)cc1 (centres undefined) | 173 |
| O=C(O)C(F)(F)Oc1cccc(CN(Cc2ccc(-c3csnn3)cc2)S(=O)(=O)c2ccccc2)c1 | 198 |
| O=C(O)COc1ccc(CN(Cc2ccc(-c3csnn3)cc2)S(=O)(=O)c2ccccc2)cc1Br | 7.9 |
| O=C(O)COc1c(F)cc(CN(Cc2ccc(-c3csnn3)cc2)S(=O)(=O)c2ccccc2)cc1F | 137 |
| O=P(O)(O)C(F)(F)c1ccc(CN(Cc2ccc(-c3csnn3)cc2)S(=O)(=O)c2ccccc2)cc1 | 0.2 |
| O=C(O)C(=O)N(c1ccccc1)c1ccc(CN(Cc2ccc(-c3csnn3)cc2)S(=O)(=O)c2ccccc2)cc1 | 235 |
| O=C(O)C(=O)Nc1ccc(CN(Cc2ccc(-c3csnn3)cc2)S(=O)(=O)c2ccccc2)cc1Br | 13.8 |
| O=C(O)C(=O)Nc1ccc(CN(Cc2ccc(-c3csnn3)cc2)S(=O)(=O)c2ccccc2)cc1C(=O)O | 10.1 |
| Cc1cc(CN(Cc2ccc(-c3csnn3)cc2)S(=O)(=O)c2ccc(OCC(=O)O)cc2)cc(C)c1OC(Cc1ccccc1)C(=O)O (centres undefined) | > 250 |
| COc1cc(CN(Cc2ccc(-c3csnn3)cc2)S(=O)(=O)c2ccccc2)ccc1OC(F)(F)C(=O)O | 237 |
| O=C(O)CSc1ccc(CN(Cc2ccc(-c3csnn3)cc2)S(=O)(=O)c2ccccc2)cc1 | 115 |
| O=P(O)(O)Cc1ccc(CN(Cc2ccc(-c3csnn3)cc2)S(=O)(=O)c2ccccc2)cc1 | 123 |
| O=C(O)C(=O)c1ccc(CN(Cc2ccc(-c3csnn3)cc2)S(=O)(=O)c2ccccc2)cc1 | 60.3 |
| O=C(O)CS(=O)(=O)c1ccc(CN(Cc2ccc(-c3csnn3)cc2)S(=O)(=O)c2ccccc2)cc1 | 232 |
| O=C(O)C(F)(F)Oc1ccc(CN(Cc2ccc(-c3csnn3)cc2)S(=O)(=O)c2ccccc2)cc1Br | 52.1 |
| O=C(O)COc1ccc(CN(Cc2ccc(-c3csnn3)cc2)S(=O)(=O)c2ccccc2)cc1Cl | 53.8 |
| O=C(O)c1cc2cc(CN(Cc3ccc(-c4csnn4)cc3)S(=O)(=O)c3ccccc3)ccc2o1 | 63.6 |

Next, values leading:

| IC50 [µM] | Structure (SMILES) |
| --- | --- |
| 59.6 | O=C(O)COc1ccc(CN(Cc2ccc(-c3csnn3)cc2)S(=O)(=O)c2ccc(OCC(=O)O)cc2)cc1 |
| 74.2 | CC(C(=O)O)(C(=O)O)c1ccc(CN(Cc2ccc(-c3csnn3)cc2)S(=O)(=O)c2ccc(OCC(=O)O)cc2)cc1 |
| 29.1 | O=C(O)COc1ccc(S(=O)(=O)N(Cc2ccc(OC(F)(F)C(=O)O)cc2)Cc2ccc(-c3csnn3)cc2)cc1 |
| > 250 | O=C(O)COc1ccc(S(=O)(=O)N(Cc2ccc(-c3csnn3)cc2)Cc2ccc(N(C(=O)C(=O)O)c3ccccc3)cc2)cc1 |
| 76.2 | Cc1cc(CN(Cc2ccc(-c3csnn3)cc2)S(=O)(=O)c2ccc(OCC(=O)O)cc2)ccc1OCC(=O)O |
| 153 | CC(C(=O)O)c1ccc(CN(Cc2ccc(-c3csnn3)cc2)S(=O)(=O)c2ccc(OCC(=O)O)cc2)cc1 (centres undefined) |
| 29.1 | O=C(O)COc1ccc(S(=O)(=O)N(Cc2ccc(-c3csnn3)cc2)Cc2ccc3oc(C(=O)O)cc3c2)cc1 |
| 4.1 | O=C(O)COc1ccc(S(=O)(=O)N(Cc2ccc(-c3csnn3)cc2)Cc2ccc(OCC(=O)O)c(Br)c2)cc1 |
| 51.8 | O=C(O)C(F)(F)c1ccc(CN(Cc2ccc(-c3csnn3)cc2)S(=O)(=O)c2ccccc2)cc1 |
| 17.7 | O=C(O)COc1ccc(S(=O)(=O)N(Cc2ccc(-c3csnn3)cc2)Cc2ccc(C(F)(F)C(=O)O)cc2)cc1 |
| 12.2 | O=C(O)COc1ccc(CN(Cc2ccc(-c3csnn3)cc2)S(=O)(=O)c2ccccc2)cc1C(=O)O |
| 19.9 | O=C(O)COc1ccc(S(=O)(=O)N(Cc2ccc(-c3csnn3)cc2)Cc2cc(F)c(OCC(=O)O)c(F)c2)cc1 |
| > 250 | COc1cc(CN(Cc2ccc(-c3csnn3)cc2)S(=O)(=O)c2ccc(OCC(=O)O)cc2)ccc1OC(F)(F)C(=O)O |
| 4.4 | O=C(O)COc1ccc(S(=O)(=O)N(Cc2ccc(-c3csnn3)cc2)Cc2ccc(OCC(=O)O)c(C(=O)O)c2)cc1 |
| 97.1 | O=C(O)C(F)(F)Oc1ccc(CN(Cc2ccc(-c3csnn3)cc2)S(=O)(=O)c2ccccc2)cc1 |
| 77.9 | O=C(O)COc1ccc(S(=O)(=O)N(Cc2ccc(-c3csnn3)cc2)Cc2ccc(OC(F)(F)C(=O)O)c(Br)c2)cc1 |
| > 250 | O=C(O)COc1ccc(S(=O)(=O)N(Cc2ccc(-c3csnn3)cc2)Cc2ccc(S(=O)(=O)CC(=O)O)cc2)cc1 |
| 114 | O=C(O)COc1ccc(S(=O)(=O)N(Cc2ccc(SCC(=O)O)cc2)Cc2ccc(-c3csnn3)cc2)cc1 |
| > 250 | O=C(O)COc1ccc(S(=O)(=O)N(Cc2ccc(-c3csnn3)cc2)Cc2ccc([S+]([O-])CC(=O)O)cc2)cc1 (centres undefined) |
| 230 | O=C(O)COc1ccc(S(=O)(=O)N(Cc2ccc(-c3csnn3)cc2)Cc2cccc(OC(F)(F)C(=O)O)c2)cc1 |
| 1.4 | O=C(O)COc1ccc(S(=O)(=O)N(Cc2ccc(-c3csnn3)cc2)Cc2ccc(NC(=O)C(=O)O)c(C(=O)O)c2)cc1 |
| 27.6 | O=C(O)COc1ccc(S(=O)(=O)N(Cc2ccc(C(=O)C(=O)O)cc2)Cc2ccc(-c3csnn3)cc2)cc1 |
| 57.7 | O=C(O)COc1ccc(S(=O)(=O)N(Cc2ccc(-c3csnn3)cc2)Cc2ccc(OCC(=O)O)c(Cl)c2)cc1 |
| 54.1 | O=C(O)COc1ccc(CN(Cc2ccc(-c3csnn3)cc2)S(=O)(=O)c2ccccc2)cc1 |
| 96.8 | O=C(O)COc1ccc(S(=O)(=O)N(Cc2ccc(CP(=O)(O)O)cc2)Cc2ccc(-c3csnn3)cc2)cc1 |
